What is called IC50 is the concentration that gives 50% inhibition. Lower therefore signals higher potency. Broadly, the Kp is the ratio of the level in a tissue or fluid to that in plasma or blood.

Series [1] has as its target T1, hERG channel (Homo sapiens, UniProt Q12809).
T1 construct: expressed in transfected cells
The experiment in a line: hERG assay (QPatch automated patch clamp, CHO cells). It counts as cell-based. The settings on record: CHO cells expressing hERG, whole-cell patch clamp, 0.003 μM to 10 μM. In a few lines:
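Whole-cell QPatch recordings at room temperature on CHO cells stably expressing hERG, "+40/−40" protocol from −90 mV holding, 0.1 Hz. Eight cumulative concentrations (0.003–10 μM) on one cell after 0.1% DMSO vehicle; tail-current inhibition versus vehicle fitted to four-parameter logistic, Hill slopes 0.5–2.0 accepted; mean of N≥3 cells.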
On the technique in general: Block of hERG is tested as a sign of cardiac risk.

The nature of series [2]: Brain to plasma (B:P) ratio in rat. It is filed as in vivo, Sprague Dawley Rats. The following applies: male, Sprague Dawley, po, p.o. 3.0 mg/kg, 30% HPBC in water, timepoints averaged 0.5-4 h. As to the method: Male Sprague Dawley Rats 300-350 g (Charles River, UK) were group housed, n=3, under a 12 h light/dark cycle with food and water available ad libitum. At 17:00 on the day prior to dosing all food was removed. On the day of dosing animals were weighed, tail marked and dosed via oral gavage with compound at 3 mg/kg in a volume of 5 mL/kg. Animals were culled at 30 min, 1 h and 4 h post dose via intra-peritoneal administration of pentobarbital. Post mortem blood was withdrawn via cardiac puncture, and briefly stored in K2 EDTA blood tubes on ice before being spun at 14,000 g for 4 min at 4° C. Plasma was withdrawn into a 96 well plate, placed on dry ice and stored at −80° C. Brains were quickly dissected and placed on dry ice before storage at −80° C. Bioanalysis of plasma and brain samples is performed as detailed below. Methods were prepared with guidance from industry standard documents.^i,ii […] Calibration lines are prepared in control male Sprague-Dawley Rat plasma at known concentrations in the range of 1-10000 ng/mL by spiking 2.5 μL of calibration spiking solution into 25 μL control plasma. Experimental samples are thawed to RT and 25 μL aliquots are extracted alongside the calibration lines using protein precipitation (agitation for at least 5 min at RT with 400 μL of MeCN containing 25 ng/mL tolbutamide as an internal standard). Protein precipitates are separated from the extracted test compound by centrifugation at 4000 rpm for 5 min, 4° C. […] Samples are analysed by UPLC-MS/MS on either an API6500 QTrap or Waters 30 TQS mass spectrometer using previously optimised analytical MRM (multiple reaction monitoring) methods, specific to the test compound. The concentration of test compound in isolated samples is determined following analysis of the samples against the two replicates of the calibration line, injected before and after the sample set with an appropriate regression and weighting used. Only samples within 20% of the expected test concentration are included in the calibration line and any samples that fall outside of the limits of the calibration line will be deemed to be less than or above the limit of quantification (LLoQ/ALoQ). […] Calibration lines are prepared in control male Sprague-Dawley Rat brain homogenate at known concentrations in the range of 3-30000 ng/g by spiking 2.5 μL of calibration spiking solution into 25 μL control homogenate. To prepare control and experimental brain homogenates, brains are thawed, weighed and a volume of diluent added (water) in the ratio of 2 mL per gram of brain. Homogenisation of brains is performed by bead-beater homogenisation using Precellys Evolution and CK14 7 mL small ceramic bead homogenisation tubes. Aliquots of 25 μL experimental sample are extracted alongside the calibration lines using protein precipitation (agitation for at least 5 min at RT with 400 μL of MeCN containing 25 ng/mL tolbutamide as an internal standard). Protein precipitates are separated from the extracted test compound by centrifugation at 4000 rpm for 5 min, 4° C. […] Samples are analysed by UPLC-MS/MS on either an API6500 QTrap or Waters TQS mass spectrometer using previously optimised analytical MRM (multiple reaction monitoring) methods, specific to the test compound. The concentration of test compound in isolated samples is determined following analysis of the samples against the two replicates of the calibration line, injected before and after the sample set with an appropriate regression and weighting used. Only samples within 20% of the expected test concentration are included in the calibration line and any samples that fall outside of the limits of the calibration line will be deemed to be less than or above the limit of quantification (LLoQ/ALoQ). Total brain to plasma (B:P) ratios were calculated by dividing the concentration in the brain by the concentration in plasma for each timepoint. The mean brain to plasma ratio is calculated by averaging these brain to plasma ratios across certain timepoints. […]

T1 sequence (Q12809 whole entry): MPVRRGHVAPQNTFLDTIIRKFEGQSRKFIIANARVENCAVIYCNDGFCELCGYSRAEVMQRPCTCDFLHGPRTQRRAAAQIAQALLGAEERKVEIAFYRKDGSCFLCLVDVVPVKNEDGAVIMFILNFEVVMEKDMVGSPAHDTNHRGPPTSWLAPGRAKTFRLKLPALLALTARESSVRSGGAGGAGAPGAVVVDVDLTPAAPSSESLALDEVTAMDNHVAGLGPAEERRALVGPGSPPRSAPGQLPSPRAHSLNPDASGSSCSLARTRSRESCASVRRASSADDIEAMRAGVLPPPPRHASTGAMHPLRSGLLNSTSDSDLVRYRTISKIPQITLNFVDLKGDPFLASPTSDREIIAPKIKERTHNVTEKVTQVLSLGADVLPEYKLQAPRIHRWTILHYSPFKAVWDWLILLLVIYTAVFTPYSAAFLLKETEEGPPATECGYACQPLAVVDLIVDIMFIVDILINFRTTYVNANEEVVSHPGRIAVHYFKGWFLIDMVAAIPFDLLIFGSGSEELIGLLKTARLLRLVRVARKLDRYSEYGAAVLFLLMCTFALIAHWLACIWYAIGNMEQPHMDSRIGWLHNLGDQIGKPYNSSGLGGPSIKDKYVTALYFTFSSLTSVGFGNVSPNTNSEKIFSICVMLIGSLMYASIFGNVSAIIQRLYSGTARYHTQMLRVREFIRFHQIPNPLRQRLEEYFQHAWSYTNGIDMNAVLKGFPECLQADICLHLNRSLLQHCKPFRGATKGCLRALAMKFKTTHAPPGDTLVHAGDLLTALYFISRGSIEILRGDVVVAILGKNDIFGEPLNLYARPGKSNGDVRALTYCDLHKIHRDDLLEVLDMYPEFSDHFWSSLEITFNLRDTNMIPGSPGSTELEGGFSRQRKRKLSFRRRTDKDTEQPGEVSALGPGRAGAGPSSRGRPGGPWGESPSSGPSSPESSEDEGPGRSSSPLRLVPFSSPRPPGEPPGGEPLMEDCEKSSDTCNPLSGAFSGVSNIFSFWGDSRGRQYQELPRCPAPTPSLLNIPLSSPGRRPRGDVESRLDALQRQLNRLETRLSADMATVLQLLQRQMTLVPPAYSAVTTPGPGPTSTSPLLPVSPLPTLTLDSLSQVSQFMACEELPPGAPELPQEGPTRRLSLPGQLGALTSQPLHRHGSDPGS

With `O=C(Nc1ccc(OC(F)(F)Cl)cc1)c1ccc(=O)n(-c2ccccc2)c1` [Example 56, N-[4-[Chloro(difluoro)methoxy]phenyl]-6-oxo-1-phenyl-pyridine-3-carboxamide], the IC50 in series [1] was > 10 µM. Further, the Kp in series [2] turned out to be 1.91.

Source of the values: patent publication US20230002346A1, “NEW COMPOUNDS AND METHODS” (BenevolentAl Bio Limited, priority 2019, published 2023).
